≈ marks a conversion by molar mass, not a printed value. Calls of active or inactive are those of the source. The calls are words filed in the database; no cut-off is given here.
How the values were obtained:
Staphylococcus aureus [1] = assay: Antibacterial activity against methicillin-resistant Staphylococcus aureus clinical isolate 5 incubated for 16 to 18 hrs by CLSI-based microbroth dilution method; assay type: functional; conditions: time 16-18 hrs
Staphylococcus aureus [2] = assay: Antibacterial activity against methicillin-resistant Staphylococcus aureus clinical isolate 1 incubated for 16 to 18 hrs by CLSI-based microbroth dilution method; assay type: functional; conditions: time 16-18 hrs
Staphylococcus aureus [3] = assay: Antibacterial activity against methicillin-resistant Staphylococcus aureus clinical isolate 6 incubated for 16 to 18 hrs by CLSI-based microbroth dilution method; assay type: functional; conditions: time 16-18 hrs
Staphylococcus aureus [4] = assay: Antibacterial activity against methicillin-resistant Staphylococcus aureus clinical isolate 7 incubated for 16 to 18 hrs by CLSI-based microbroth dilution method; assay type: functional; conditions: time 16-18 hrs
Staphylococcus aureus [5] = assay: Antibacterial activity against methicillin-resistant Staphylococcus aureus clinical isolate 2 incubated for 16 to 18 hrs by CLSI-based microbroth dilution method; assay type: functional; conditions: time 16-18 hrs
Staphylococcus aureus [6] = assay: Antibacterial activity against methicillin-resistant Staphylococcus aureus clinical isolate 9 incubated for 16 to 18 hrs by CLSI-based microbroth dilution method; assay type: functional; conditions: time 16-18 hrs
Staphylococcus aureus [7] = assay: Antibacterial activity against Staphylococcus aureus A7 assessed as inhibition of bacterial growth by CLSI based microdilution broth assay; assay type: functional
Staphylococcus aureus [8] = assay: Antibacterial activity against methicillin-resistant Staphylococcus aureus clinical isolate 8 incubated for 16 to 18 hrs by CLSI-based microbroth dilution method; assay type: functional; conditions: time 16-18 hrs
Staphylococcus aureus [9] = assay: Antibacterial activity against Staphylococcus aureus ATCC 29213 incubated for 16 to 18 hrs by CLSI-based microbroth dilution method; assay type: functional; conditions: time 16-18 hrs
Staphylococcus aureus [10] = assay: Antibacterial activity against methicillin-resistant Staphylococcus aureus clinical isolate 10 incubated for 16 to 18 hrs by CLSI-based microbroth dilution method; assay type: functional; conditions: time 16-18 hrs
Staphylococcus aureus [11] = assay: Antibacterial activity against Staphylococcus aureus ATCC 29213 assessed as inhibition of bacterial growth by CLSI based microdilution broth assay; assay type: functional
Staphylococcus aureus [12] = assay: Antibacterial activity against methicillin-resistant Staphylococcus aureus clinical isolate 3 incubated for 16 to 18 hrs by CLSI-based microbroth dilution method; assay type: functional; conditions: time 16-18 hrs
Staphylococcus aureus [13] = assay: Antibacterial activity against Staphylococcus aureus D5 assessed as inhibition of bacterial growth by CLSI based microdilution broth assay; assay type: functional
[14] = Hemolytic activity in sheep erythrocytes incubated for 1 hr by absorbance based analysis; assay type: toxicity, cell-based, Ovis aries, Erythrocyte
Staphylococcus aureus [15] = assay: Antibacterial activity against methicillin-resistant Staphylococcus aureus clinical isolate 4 incubated for 16 to 18 hrs by CLSI-based microbroth dilution method; assay type: functional; conditions: time 16-18 hrs
Staphylococcus aureus [16] = assay: Induction of drug resistance in Staphylococcus aureus ATCC 29213 assessed as fold increase in MIC at 0.5 times MIC measured for 20 passages relative to control; assay type: functional
Cell membrane = assay: Induction of membrane depolarization in methicillin-resistant Staphylococcus aureus 3 assessed as increase in fluorescence intensity at 32 ug/ml measured every 2 mins for 20 mins by SYTOX-green dye based fluorescence assay; assay type: subcellular; conditions: dose 32.0 µg/ml
[17] = Toxicity in KM mouse infected with methicillin-resistant Staphylococcus aureus 3 assessed as histopathological abnormalities in heart at 5 mg/kg administered into skin infection site measured after 24 hrs by H and E staining based analysis; assay type: organism-based; conditions: in vivo, topical_or_ocular
Staphylococcus aureus [18] = assay: Antibacterial activity against methicillin-resistant Staphylococcus aureus 3 infected in KM mouse assessed as reduction in abscesses on dorsal surface of skin at 5 mg/kg administered into skin infection site measured after 24 hrs; assay type: functional, organism-based
Staphylococcus aureus [19] = assay: Antibacterial activity against methicillin-resistant Staphylococcus aureus 3 infected in KM mouse assessed as reduction in size of abscesses at 5 mg/kg administered into skin infection site measured after 24 hrs; assay type: functional, organism-based
[20] = Toxicity in KM mouse infected with methicillin-resistant Staphylococcus aureus 3 assessed as lung damage at 5 mg/kg administered into skin infection site measured after 24 hrs by H and E staining based analysis; assay type: organism-based; conditions: in vivo, topical_or_ocular
[21] = Toxicity in KM mouse infected with methicillin-resistant Staphylococcus aureus 3 assessed as multifocal enlargement of hepatocytes with cytoplasmic foamy swelling at 5 mg/kg administered into skin infection site measured after 24 hrs by H and E staining based analysis; assay type: organism-based; conditions: in vivo, topical_or_ocular
[22] = Toxicity in KM mouse infected with methicillin-resistant Staphylococcus aureus 3 assessed as liver damage at 5 mg/kg administered into skin infection site measured after 24 hrs by H and E staining based analysis; assay type: organism-based; conditions: in vivo, topical_or_ocular
Staphylococcus aureus [23] = assay: Antibacterial activity against methicillin-resistant Staphylococcus aureus 3 infected in KM mouse assessed as reduction in bacterial load at infection site by measuring colony forming units at 5 mg/kg administered into skin infection site measured after 24 hrs; assay type: functional
[24] = Toxicity in KM mouse infected with methicillin-resistant Staphylococcus aureus 3 assessed as kidneys damage at 5 mg/kg administered into skin infection site measured after 24 hrs by H and E staining based analysis; assay type: organism-based; conditions: in vivo, topical_or_ocular
Staphylococcus aureus [25] = assay: Antibacterial activity against methicillin-resistant Staphylococcus aureus 3 infected in KM mouse assessed as reduction in inflammatory cells in subcutaneous tissue at 5 mg/kg administered into skin infection site measured after 24 hrs by H and E staining based analysis; assay type: functional, organism-based
[26] = Toxicity in KM mouse infected with methicillin-resistant Staphylococcus aureus 3 assessed as vacuolar degeneration in the kidneys at 5 mg/kg administered into skin infection site measured after 24 hrs by H and E staining based analysis; assay type: organism-based; conditions: in vivo, topical_or_ocular
[27] = Toxicity in KM mouse infected with methicillin-resistant Staphylococcus aureus 3 assessed as spleen damage at 5 mg/kg administered into skin infection site measured after 24 hrs by H and E staining based analysis; assay type: organism-based; conditions: in vivo, topical_or_ocular
Staphylococcus aureus [28] = assay: Antibacterial activity against methicillin-resistant Staphylococcus aureus 3 infected in KM mouse assessed as reduction in abscesses inside the skin at 5 mg/kg administered into skin infection site measured after 24 hrs; assay type: functional, organism-based
[29] = Toxicity in KM mouse infected with methicillin-resistant Staphylococcus aureus 3 assessed as heart damage at 5 mg/kg administered into skin infection site measured after 24 hrs by H and E staining based analysis; assay type: organism-based; conditions: in vivo, topical_or_ocular
Staphylococcus aureus [30] = assay: Antibacterial activity against methicillin-resistant Staphylococcus aureus 3 infected in KM mouse assessed as reduction in bacterial load at infection site at 5 mg/kg administered into skin infection site measured after 24 hrs relative to control; assay type: functional; set-up: scale not given: the % may be the effect or the level left
[31] = Toxicity in KM mouse infected with methicillin-resistant Staphylococcus aureus 3 assessed as histopathological abnormalities in spleen at 5 mg/kg administered into skin infection site measured after 24 hrs by H and E staining based analysis; assay type: organism-based; conditions: in vivo, topical_or_ocular
[32] = Toxicity in KM mouse infected with methicillin-resistant Staphylococcus aureus 3 assessed as swelling of renal tubular epithelial cells with granular degeneration at 5 mg/kg administered into skin infection site measured after 24 hrs by H and E staining based analysis; assay type: organism-based; conditions: in vivo, topical_or_ocular
[33] = Toxicity in KM mouse infected with methicillin-resistant Staphylococcus aureus 3 assessed as histopathological abnormalities in lungs at 5 mg/kg administered into skin infection site measured after 24 hrs by H and E staining based analysis; assay type: organism-based; conditions: in vivo, topical_or_ocular

| Compound | MIC (Staphylococcus aureus [1]) [µg/mL] | MIC (Staphylococcus aureus [2]) [µg/mL] | MIC (Staphylococcus aureus [3]) [µg/mL] | MIC (Staphylococcus aureus [4]) [µg/mL] | MIC (Staphylococcus aureus [5]) [µg/mL] | MIC (Staphylococcus aureus [6]) [µg/mL] | MIC (Staphylococcus aureus [8]) [µg/mL] | MIC (Staphylococcus aureus [9]) [µg/mL] | MIC (Staphylococcus aureus [10]) [µg/mL] | MIC (Staphylococcus aureus [12]) [µg/mL] | HC50 at 1 h [14] [µg/mL] | MIC (Staphylococcus aureus [15]) [µg/mL] | also measured |
| --- | --- | --- | --- | --- | --- | --- | --- | --- | --- | --- | --- | --- | --- |
| COc1cc(O)c(CC=C(C)C)c(O)c1C(=O)/C=C/c1ccc(O)cc1 [XANTHOHUMOL] | 8 (≈ 22.6 µM) | 8 (≈ 22.6 µM) | 16 (≈ 45.1 µM) | 8 (≈ 22.6 µM) | 8 (≈ 22.6 µM) | 8 (≈ 22.6 µM) | 8 (≈ 22.6 µM) | 16 (≈ 45.1 µM) | 8 (≈ 22.6 µM) | 8 (≈ 22.6 µM) | 196 | 4 (≈ 11.3 µM) | MIC (Staphylococcus aureus [7]): 15.6 µg/mL (≈ 44 µM); MIC (Staphylococcus aureus [11]): 15.6 µg/mL (≈ 44 µM); MIC (Staphylococcus aureus [13]): 15.6 µg/mL (≈ 44 µM) |
| CCn1cc(C(=O)O)c(=O)c2cc(F)c(N3CCNCC3)cc21 |  |  |  |  |  |  |  |  |  |  |  |  | fold change (FC) (Staphylococcus aureus [16]): 128 |
| CC[C@H](C)[C@H](NC(=O)CN)C(=O)NCC(=O)N[C@@H](C)C(=O)N[C@H](C(=O)N[C@@H](CC(C)C)C(=O)N[C@@H](CCCCN)C(=O)N[C@H](C(=O)N[C@@H](CC(C)C)C(=O)N[C@H](C(=O)N[C@H](C(=O)NCC(=O)N[C@@H](CC(C)C)C(=O)N1CCC[C@H]1C(=O)N[C@@H](C)C(=O)N[C@@H](CC(C)C)C(=O)N[C@H](C(=O)N[C@@H](CO)C(=O)N[C@@H](Cc1c[nH]c2ccccc12)C(=O)N[C@H](C(=O)N[C@@H](CCCCN)C(=O)N[C@@H](CCCNC(=N)N)C(=O)N[C@@H](CCCCN)C(=O)N[C@@H](CCCNC(=N)N)C(=O)N[C@@H](CCC(N)=O)C(=O)N[C@@H](CCC(N)=O)C(N)=O)[C@@H](C)CC)[C@@H](C)CC)[C@@H](C)O)[C@@H](C)O)C(C)C)C(C)C |  |  |  |  |  |  |  |  |  |  |  |  | Activity (Cell membrane): Active |
| COc1cc2c(c(O)c1C(=O)/C=C/c1ccc(OCCCCC[N+](C)(C)CC(=O)N3CCOCC3)cc1)C=CC(C)(C)O2.[Br-] | 4 | 2 | 2 | 4 | 4 | 4 | 4 | 8 | 2 | 4 | > 1280 | 4 |  |
| CCCCCCNC(=O)C[N+](C)(C)CCCCCOc1ccc(/C=C/C(=O)c2c(OC)cc3c(c2O)C=CC(C)(C)O3)cc1.[Br-] | 2 | 2 | 2 | 4 | 2 | 4 | 4 | 4 | 2 | 2 | 245 | 2 |  |
| COc1cc2c(c(O)c1C(=O)/C=C/c1ccc(OCCCCC[N+](C)(C)CC(=O)N(CC(C)C)CC(C)C)cc1)C=CC(C)(C)O2.[Br-] | 2 | 4 | 1 | 2 | 1 | 2 | 2 | 2 | 2 | 2 | 374 | 2 |  |
| CN[C@H](CC(C)C)C(=O)N[C@H]1C(=O)N[C@@H](CC(N)=O)C(=O)N[C@H]2C(=O)N[C@H]3C(=O)N[C@H](C(=O)N[C@H](C(=O)O)c4cc(O)cc(O)c4-c4cc3ccc4O)[C@H](O)c3ccc(c(Cl)c3)Oc3cc2cc(c3O[C@@H]2O[C@H](CO)[C@@H](O)[C@H](O)[C@H]2O[C@H]2C[C@](C)(N)[C@H](O)[C@H](C)O2)Oc2ccc(cc2Cl)[C@H]1O [VANCOMYCIN] |  |  |  |  |  |  |  |  |  |  |  |  | Activity [17]: Non-Toxic; Activity (Staphylococcus aureus [18]): inactive; Activity (Staphylococcus aureus [19]): Active; Activity [20]: Non-Toxic; Activity [21]: Non-Toxic; Activity [22]: Non-Toxic; Activity (Staphylococcus aureus [23]): 2.2 log10CFU/g; Activity [24]: Non-Toxic; Activity (Staphylococcus aureus [25]): Active; Activity [26]: Non-Toxic; Activity [27]: Non-Toxic; Activity (Staphylococcus aureus [28]): inactive; Activity [29]: Non-Toxic; Activity (Staphylococcus aureus [30]): 99.479%; Activity [31]: Non-Toxic; Activity [32]: Non-Toxic; Activity [33]: Non-Toxic |
| COc1cc2c(c(O)c1C(=O)/C=C/c1ccc(OCCC[N+](C)(C)CC(=O)N3CCOCC3)cc1)C=CC(C)(C)O2.[Br-] | 8 | 8 | 8 | 4 | 8 | 8 | 8 | 8 | 8 | 8 | > 1280 | 16 |  |
| CCCCCNC(=O)C[N+](C)(C)CCCOc1ccc(/C=C/C(=O)c2c(OC)cc3c(c2O)C=CC(C)(C)O3)cc1.[Br-] | 2 | 2 | 4 | 4 | 4 | 4 | 4 | 2 | 4 | 2 | 169 | 4 |  |
| CCCCCCNC(=O)C[N+](C)(C)CCCOc1ccc(/C=C/C(=O)c2c(OC)cc3c(c2O)C=CC(C)(C)O3)cc1.[Br-] | 2 | 2 | 4 | 4 | 2 | 1 | 2 | 2 | 1 | 2 | 97.9 | 2 |  |
| CCCCCNC(=O)C[N+](C)(C)CCCCOc1ccc(/C=C/C(=O)c2c(OC)cc3c(c2O)C=CC(C)(C)O3)cc1.[Br-] | 4 | 4 | 2 | 4 | 4 | 4 | 4 | 4 | 4 | 4 | 83.4 | 8 |  |
| CCCNC(=O)C[N+](C)(C)CCCCCOc1ccc(/C=C/C(=O)c2c(OC)cc3c(c2O)C=CC(C)(C)O3)cc1.[Br-] | 1 | 2 | 1 | 2 | 8 | 8 | 2 | 4 | 2 | 2 | 974 | 2 |  |

Reference: ChEMBL document CHEMBL5316298, “Discovery of Amphiphilic Xanthohumol Derivatives as Membrane-Targeting Antimicrobials against Methicillin-Resistant Staphylococcus aureus” (J Med Chem, 2023)
